Assay results taken from patent publication US9024055B2, “Acetaminophen conjugates, compositions and methods of use thereof” (Acorda Therapeutics, Inc., priority 2011, dated 2015).
≈ marks a conversion by molar mass, not a printed value. Where two headings read alike, the source gives them in different places.

Key:
alkaline phosphatase = details: with alkaline phosphatase; cited from earlier work
[1] = cited from earlier work
[2] = Solubility in phosphate-buffered saline (pH 7.2) at room temperature (Example 18); details: pH 7.2, aqueous buffer
[3] = Goodman and Gillman's 10th ed; cited from earlier work
[4] = cited from earlier work; remark: listed apart in the source
[5] = Stability in PBS at 37° C. (control matrix); assay type: physicochemical; details: out to four hours
Description: (§1) Loss of deuterated acetaminophen (APAP-d4) was also monitored in order to account for compound losses due to the metabolism of acetaminophen. Stability of the test samples in PBS at 37° C. was also determined.
(§2) Five lots of human whole blood (lithium heparin) were purchased from Biochemed and stored refrigerated at +5° C.±3° C. until use. Five lots of SD Rat whole blood (lithium heparin) were purchased from Biochemed and stored refrigerated at +5° C.±3° C. until use. Phosphate-buffered saline was used as a control matrix; it was prepared in-house and stored refrigerated at +5° C.±3° C. until use. Test Articles were weighed immediately prior use.
(§3) Whole blood was removed from storage and allowed to reach room temperature. It was pooled by species at this time. Once the pool reached room temperature, individual 1,980 μL aliquots of the whole blood pool were added to the appropriate tubes on test. Individual 1,980 μL aliquots of blank phosphate buffered saline (PBS) were added to the appropriate tubes on test. All tubes were pre-incubated at 37° C. in a water bath for 5 minutes.
The appropriate intermediate solution was added to each tube on test such that the final concentration of the test article in blood was 6.62 μM. The compound was assayed in triplicate at this concentration. Nominal O-minute samples were aliquoted into a 96-well plate as soon as spiking solution was added. Just prior to a 150 μL sample transfer, 450 μL of acetonitrile:methanol (1:1) was placed in the individual receiving wells in order to stop conversion reactions. The plate containing “stopped” samples was held, covered, in a wet-ice bath until all remaining timepoints were aliquoted. All remaining spiked samples were incubated at 37° C. in a water bath throughout the sampling period. […] Just prior to each transfer, 450 μL, of acetonitrile:methanol (1:1) was placed in the receiving wells for those aliquots in order to stop conversion reactions.

[6] = Human liver microsome-mediated metabolism (appearance of acetaminophen); details: for Stability in buffer: phosphate buffer at 37° C. (human microsome study)
Description: The appearance of acetaminophen (APAP) when Test Articles A, B or C are incubated in human liver microsomes at 37° C. was determined. Loss of APAP-d4 was also monitored.
One lot consisted of ˜150 human mixed gender liver microsomes was purchased from BD Biosciences and stored frozen at −80° C. until use. Compounds were weighed immediately prior use. Test Article A, Test Article B, and Test Article C were weighed on a microbalance and dissolved in water to generate individual stock solutions, each at a concentration of 3.31 mM. Purity was taken into account for each stock solution prepared. APAP-d4 was weighed on a microbalance and dissolved in water to generate a stock solution at a 3.31 mM concentration. Purity was taken into account for the stock preparation.
One part Test Articles A, B or C and one part APAP-d4 was added to three parts water to arrive at an intermediate solution consisting of 662 μM for each compound.
The intermediate solutions prepared above were added to phosphate buffer to arrive at solutions consisting of 8.827 μM of each compound; these were called Substrate solutions. Incubation wells were placed in a wet ice-bath. 750 μL of Substrate solution was added to the appropriate wells. […] 50 μL of Microsomal suspension (20 mg/mL) was added to the appropriate wells. […] Samples were pre-incubated by shaking at 37° C. for 5 minutes. Just prior to starting the reactions in the next step 80 μL aliquots were removed and “killed” with 200 μL of Stop solution; these were the 0 min samples.
Reactions for the remaining samples were started by adding 180 μL Cofactor Solution (5×) to the appropriate wells. […] A 20 μL aliquot of Cofactor Solution (5×) was added to the stopped 0 min samples. […] At 2.5, 5, 10, 30, 60, 120, and 240 minutes, 100 μL of the specified incubation sample was removed and “killed” with 200 μL of Stop Solution. Once all required samples were collected, the plate was centrifuged at 3000 rpm for 10 minutes to pellet the precipitated proteins, and the resultant supernatants were transferred to a fresh 96-well plate for extraction and analysis.
Samples were analyzed for acetaminophen and acetaminophen-d4 concentrations, using a method that employs HPLC and MS/MS detection.

[7] = Test article pharmacokinetics in rats after a single oral or intravenous dose; plasma acetaminophen by LC-MS/MS; assay type: in vivo, Sprague-Dawley rats; details: for Acetaminophen exposure compared with administration of acetaminophen: equivalent acetaminophen doses, oral and intravenous
Description: Forty-eight (48) male and female Sprague-Dawley rats were assigned to eight dose groups consisting of three animals per test article per dose route per gender. There were four test articles including acetaminophen, obtained from Sigma-Aldrich, and three acetaminophen conjugates as set forth below.
The animals received a single dose (oral or intravenous) of the test articles via oral gavage or slow intravenous bolus. […] Cage-side observations were performed daily; body weights were recorded prior to each dosing day. Blood samples for pharmacokinetic (PK) analyses were collected at 5 minutes to 8 hr post-dose and acetaminophen plasma concentrations were measured via a LC-MS/MS method.
Non-compartmental pharmacokinetic analysis was conducted for mean plasma acetaminophen concentrations for each test article. Measures of acetaminophen exposure (e.g., AUClast) were typically greater in female animals than male animals for all test articles and for both the oral and intravenous routes of administration.

[8] = Solubility testing, initial protocol (Example 17A), HPLC; assay type: physicochemical; details: thermodynamic from solid, 18 ° C.
Description: 10-60 mg of Test Article A was weighed into a 1 mL micro centrifuge tube. 100 μL of solvent was added. Samples were mixed using a vortex mixer, and then sonicated for 15 minutes at ambient temperature. In the event of complete dissolution, more solute was added. The resultant suspensions were centrifuged to yield an off-white saturated solution. A small aliquot of the supernatant was diluted prior to analysis by HPLC.
(§4) A HPLC method was developed to quantify Test Article A concentration via external standard analysis, and also monitor and quantify the hydrolysis product APAP. Linearity was determined over the range 20 to 120 μg/mL, and reproducibility was determined at 100 μg/mL.

[9] = Solubility via modified protocol with water bath equilibration (Example 17B), HPLC; assay type: physicochemical
Description: 10-60 mg of Test Article A was weighed into a 1 mL micro centrifuge tube. 100 μL of solvent was added. Samples were mixed using a vortex mixer, and then sonicated for 15 minutes at ambient temperature. In the event of complete dissolution, more solute was added. The resultant suspensions were equilibrated in a water bath for 20 minutes and were centrifuged for 1 minute to yield an off-white saturated solution. The samples were then equilibrated a further 20 minutes in the water bath. 5-10 μL aliquots of the supernatant were diluted into 25 mL of mobile phase using volumetric flasks, prior to analysis by HPLC.
as §4

[10] = Rat liver microsome-mediated metabolism (appearance of acetaminophen); assay type: in vitro ADME; details: for Stability in buffer: phosphate buffer at 37° C. (rat microsome study)
Description: Loss of APAP-d4 was also monitored.
Lot 62548 consisting of ˜334 male rat livers and lot 59232 consisting of 10 female rat livers were pooled at a 1:1 ratio just before use. […] Compounds were weighed immediately prior to use. […] Purity was taken into account for the stock preparation.
Incubation wells were placed in a wet ice-bath.

[11] = Hydrolysis and metabolism in human whole blood at 37° C. (appearance of acetaminophen); assay type: in vitro ADME; details: human whole blood vs PBS
Description: as §1, §2
(§5) Purity was taken into account for the stock preparation.
as §3, with “1980” for “1,980”, “pool” for “pool were added to the appropriate tubes on test. Individual 1,980 μL aliquots of blank phosphate buffered saline (PBS)”
The appropriate intermediate solution was added to each tube on test such that the final concentration of the test article in blood was 6.62 μM. The compound was assayed in triplicate at this concentration. Nominal O-minute samples were aliquoted into a 96-well plate as soon as spiking solution was added. […]

[12] = Hydrolysis and metabolism in rat whole blood at 37° C. (appearance of acetaminophen); assay type: in vitro ADME, SD Rat; details: rat whole blood vs PBS
Description: as §1, §2, §5, §3
The appropriate intermediate solution was added to each tube on test such that the final concentration of the test article in blood was 6.62 μM. The compound was assayed in triplicate at this concentration. […]

[13] = Anesthesia and Analgesia 101, 90-96, 2005
[14] = British Journal of Anaesthesia 94 (5): 642-648, 2005
[15] = with and without cofactor, compared with buffer, 37° C., up to 240 minutes

SMILES | Water solubility [1] | Local tolerance profile [4, 13] | Local tolerance profile [4, 14] | Stability in PBS [5] | Stability in buffer [6] | Acetaminophen exposure compared with administration of acetaminophen [7] | Stability in buffer [10] | solubility [2] | Conversion to APAP in blood incubations versus buffer incubations [11] | Conversion to APAP in blood incubations versus buffer incubations [12] | other results
CC(=O)Nc1ccc(OP(=O)(O)O)cc1 [4-acetamidophenyl dihydrogen phosphate] | 50 g per 100 mL | – | – | – | – | – | – | – | – | – | Time required in vitro to yield acetaminophen from the derivative (alkaline phosphatase): about 15 hours
CC(=O)Nc1ccc(O)cc1 [Acetaminophen, N-(4-hydroxyphenyl)acetamide] | about 1.3 g per 100 mL | 0% | 52% | – | – | – | – | – | – | – | solubility ([2]; phosphate-buffered saline): 13.1 mg/mL (≈ 86.7 mM); Half-life [3]: about 2 hours
CCN(CC)CC(=O)Oc1ccc(NC(C)=O)cc1 [Propacetamol, 4-acetamidophenyl 2-(diethylamino)acetate] | – | 49% | 90% | – | – | – | – | – | – | – | –
CC(=O)Nc1ccc(OC(=O)SCCS(=O)(=O)[O-])cc1.[Na+] [Test Article A, Sodium 2-((4-acetamidophenoxy)carbonylthio)ethanesulfonate] | – | – | – | rather stable | stable | as great as, or greater than | stable | – | – | – | Conversion to acetaminophen in human liver microsomes [6, 15]: at a level greater than incubations with buffer; Time to maximum acetaminophen plasma concentration compared with Test Articles C and B ([7]; oral administration): longer time to maximum acetaminophen plasma concentrations; solubility at 15 min ([8]; aqueous buffer, PBS): 246 mg/mL; solubility at 15 min ([8]; aqueous with cosolvent or surfactant or cyclodextrin, 50% Water, Ethanol): 199 mg/mL; solubility at 15 min ([8]; organic solvent or mixture, Ethanol): 1 mg/mL; solubility at 15 min ([8]; Water, initial protocol): 280 mg/mL; solubility at 40 min ([9]; PEG-400, 19 °C, organic solvent or mixture, thermodynamic from solid): 103 mg/mL; solubility at 40 min ([9]; PEG-400/water (50% water), 19 °C, aqueous with cosolvent or surfactant or cyclodextrin, thermodynamic from solid): 306 mg/mL; solubility at 40 min ([9]; pH 5 buffer, 19 °C, pH 5, aqueous buffer, thermodynamic from solid): 226 mg/mL; solubility ([9]; pH 6.5 Buffer, 19 ° C.): 210 mg/mL; solubility at 40 min ([9]; pH 6.5 buffer, 19 °C, pH 6.5, aqueous buffer, thermodynamic from solid): 198 mg/mL; solubility at 40 min ([9]; pH 6.5 buffer, 35 °C, pH 6.5, aqueous buffer, thermodynamic from solid): 406 mg/mL; solubility at 40 min ([9]; pH 8 buffer, 19 °C, pH 8, aqueous buffer, thermodynamic from solid): 198 mg/mL; solubility at 40 min ([9]; propylene glycol, 19 °C, organic solvent or mixture, thermodynamic from solid): 69 mg/mL; solubility at 40 min ([9]; propylene glycol/water (50% water), 19 °C, aqueous with cosolvent or surfactant or cyclodextrin, thermodynamic from solid): 185 mg/mL; solubility ([9]; water, 0 °C, water, thermodynamic from solid, Water (in Fridge), 0 to 4 ° C., read-out: Solubility): 78 mg/mL; solubility at 40 min ([9]; water, 19 °C, thermodynamic from solid, Water Repeat, modified protocol): 230 mg/mL; Conversion to acetaminophen in rat liver microsomes [10, 15]: at a level much greater than incubations with buffer
CC(=O)Nc1ccc(OC(=O)NCCS(=O)[O-])cc1.[Na+] [Test Article B, Sodium 2-((4-acetamidophenoxy)carbonylamino)ethanesulfinate] | – | – | – | not stable | not stable | substantially lower | not stable | 424 mg/mL | nearly equivalent | nearly equivalent | –
CC(=O)Nc1ccc(OC(=O)NCCS(=O)(=O)[O-])cc1.[Na+] [Test Article C, Sodium 2-((4-acetamidophenoxy)carbonylamino)ethanesulfonate, reference compound] | – | – | – | not stable | not stable | substantially lower | not stable | 492 mg/mL | nearly equivalent | nearly equivalent | –
